How the values were obtained:
Assay type in all cases: cell-based, Acinetobacter baumannii
[1] = system: A. baumannii mutant AB1310; test: Dose dependent resistance suppression (antibiotic MIC with compound) in AB1310
Experimental: There was no notable reduction in antibiotic MIC observed with either compound and both strains 522 and 1310. […] Even at the highest concentration, no potentiation was observed.
(§1) Day Cultures (6 h) were subcultured to 5×10^5 CFU/mL in cation adjusted Mueller-Hinton broth (CAMHB). […] One milliliter of the resulting solution was aliquoted into a separate culture tube and was dosed with antibiotic so that the resulting concentration was the highest desirable concentration to be tested. Bacteria treated with antibiotic alone were used as a control. Row one of a 96-well plate was filled with 200 μL of the antibiotic/compound solution, and the remaining rows were filled with 100 μL of the remaining 4 mL bacterial subculture. The wells in row one were mixed five times before 100 μL was transferred to the following row (row two). Row two was then mixed five times, and 100 μL was transferred to row three. This process was repeated until the second to last row had been reached. The last row is left unexposed to antibiotic in order to serve as a negative control. The antibiotic only treated bacteria was plated by aliquoting 200 μL of the treated bacteria into row one and filling the remaining rows with untreated bacteria from the original bacteria subculture. The rows were mixed in the same way as described above. Plates were covered with Glad Press n'Seal and were incubated under stationary conditions at 37° C. for 16 hours. MIC values were recorded as the lowest concentration at which no bacterial growth was observed. Fold reductions were determined by comparison of the compound treated wells with the antibiotic only treated control wells.

[2] = system: A. baumannii strain 3560; test: Potentiation of clarithromycin and vancomycin against clinical isolate; details: with compound at 30 μM
Experimental: (§2) As previously stated, A. baumannii 5075 was chosen for these studies due to its virulence and multidrug resistance, but to further analyze the activity of our lead compounds, 23 A. baumannii clinical isolates obtained from Walter Reed Army Institute of Research (WRAIR) were tested.
as §1

[3] = system: A. baumannii strain 3785; test: as above; details: with compound at 30 μM
Experimental: as §2, §1

[4] = system: A. baumannii strain 3806; test: as above; details: with compound at 30 μM
Experimental: as §2, §1

[5] = system: A. baumannii strain 3927; test: as above; details: with compound at 30 μM
Experimental: as §2, §1

[6] = system: A. baumannii strain 4025; test: as above; details: with compound at 30 μM
Experimental: as §2, §1

[7] = system: A. baumannii strain 4026; test: as above; details: with compound at 30 μM
Experimental: as §2, §1

[8] = system: A. baumannii strain 4027; test: as above; details: with compound at 30 μM
Experimental: as §2, §1

[9] = system: A. baumannii strain 4052; test: as above; details: with compound at 30 μM
Experimental: as §2, §1

[10] = system: A. baumannii strain 4269; test: as above; details: with compound at 30 μM
Experimental: as §2, §1

[11] = system: A. baumannii strain 4448; test: as above; details: with compound at 30 μM
Experimental: as §2, §1

[12] = system: A. baumannii strain 4456; test: as above; details: with compound at 30 μM
Experimental: as §2, §1

[13] = system: A. baumannii strain 4490; test: as above; details: with compound at 30 μM
Experimental: as §2, §1

[14] = system: A. baumannii strain 4498; test: as above; details: with compound at 30 μM
Experimental: as §2, §1

[15] = system: A. baumannii strain 4795; test: as above; details: with compound at 30 μM
Experimental: as §2, §1

[16] = system: A. baumannii strain 4857; test: as above; details: with compound at 30 μM
Experimental: as §2, §1

[17] = system: A. baumannii strain 4878; test: as above; details: with compound at 30 μM
Experimental: as §2, §1

[18] = system: A. baumannii strain 4957; test: as above; details: with compound at 30 μM
Experimental: as §2, §1

[19] = system: A. baumannii strain 4991; test: as above; details: with compound at 30 μM
Experimental: as §2, §1

[20] = system: A. baumannii strain 5001; test: as above; details: with compound at 30 μM
Experimental: as §2, §1

[21] = system: A. baumannii strain 5197; test: as above; details: with compound at 30 μM
Experimental: as §2, §1

[22] = system: A. baumannii strain 5256; test: as above; details: with compound at 30 μM
Experimental: as §2, §1

[23] = system: A. baumannii strain 5711; test: as above; details: with compound at 30 μM
Experimental: as §2, §1

[24] = system: A. baumannii strain 8967; test: as above; details: with compound at 30 μM
Experimental: as §2, §1

Question: Which results are given for `Nc1nc(-c2ccc(NC(=O)c3cc(Cl)cc(Cl)c3)cc2)c[nH]1` [Compound 1]?
Answer: Azithromycin MIC ([1]; compound Conc. Tested 2 (μM)): 4 µg/mL; Clarithromycin MIC ([1]; compound Conc. Tested 2 (μM)): 1 µg/mL; Erythromycin MIC ([1]; compound Conc. Tested 2 (μM)): 4 µg/mL; Vancomycin MIC ([1]; compound Conc. Tested 2 (μM)): 64 µg/mL; Azithromycin MIC ([1]; compound Conc. Tested 3 (μM)): 4 µg/mL; Clarithromycin MIC ([1]; compound Conc. Tested 3 (μM)): 1 µg/mL; Erythromycin MIC ([1]; compound Conc. Tested 3 (μM)): 2 µg/mL; Vancomycin MIC ([1]; compound Conc. Tested 3 (μM)): 64 µg/mL; Azithromycin MIC ([1]; compound Conc. Tested 4 (μM)): 4 µg/mL; Clarithromycin MIC ([1]; compound Conc. Tested 4 (μM)): 0.5 µg/mL; Erythromycin MIC ([1]; compound Conc. Tested 4 (μM)): 4 µg/mL; Vancomycin MIC ([1]; compound Conc. Tested 4 (μM)): 64 µg/mL; Azithromycin MIC ([1]; compound Conc. Tested 5 (μM)): 4 µg/mL; Clarithromycin MIC ([1]; compound Conc. Tested 5 (μM)): 0.5 µg/mL; Erythromycin MIC ([1]; compound Conc. Tested 5 (μM)): 2 µg/mL; Vancomycin MIC ([1]; compound Conc. Tested 5 (μM)): 32 µg/mL; Clarithromycin MIC [2]: 0.5 µg/mL; Vancomycin MIC [2]: 0.5 µg/mL; Clarithromycin MIC [3]: 0.5 µg/mL; Vancomycin MIC [3]: 1 µg/mL; Clarithromycin MIC [4]: 0.25 µg/mL; Vancomycin MIC [4]: 2 µg/mL; Clarithromycin MIC [5]: 0.5 µg/mL; Vancomycin MIC [5]: 8 µg/mL; Clarithromycin MIC [6]: 0.25 µg/mL; Vancomycin MIC [6]: 2 µg/mL; Clarithromycin MIC [7]: 0.5 µg/mL; Vancomycin MIC [7]: 2 µg/mL; Clarithromycin MIC [8]: ≤0.25 µg/mL; Vancomycin MIC [8]: 1 µg/mL; Clarithromycin MIC [9]: ≤0.25 µg/mL; Vancomycin MIC [9]: 4 µg/mL; Clarithromycin MIC [10]: ≤0.25 µg/mL; Vancomycin MIC [10]: 2 µg/mL; Clarithromycin MIC [11]: ≤0.25 µg/mL; Vancomycin MIC [11]: 1 µg/mL; Clarithromycin MIC [12]: 0.5 µg/mL; Vancomycin MIC [12]: 16 µg/mL; Clarithromycin MIC [13]: 0.5 µg/mL; Vancomycin MIC [13]: 1 µg/mL; Clarithromycin MIC [14]: ≤0.25 µg/mL; Vancomycin MIC [14]: 1 µg/mL; Clarithromycin MIC [15]: 0.5 µg/mL; Vancomycin MIC [15]: 4 µg/mL; Clarithromycin MIC [16]: 0.5 µg/mL; Vancomycin MIC (μg/mL) [16]: Toxic; Clarithromycin MIC [17]: 0.5 µg/mL; Vancomycin MIC [17]: 2 µg/mL; Clarithromycin MIC [18]: 0.5 µg/mL; Vancomycin MIC [18]: 8 µg/mL; Clarithromycin MIC [19]: 0.5 µg/mL; Vancomycin MIC [19]: 32 µg/mL; Clarithromycin MIC [20]: 0.5 µg/mL; Vancomycin MIC [20]: 2 µg/mL; Clarithromycin MIC [21]: 0.5 µg/mL; Vancomycin MIC [21]: 16 µg/mL; Clarithromycin MIC [22]: 0.25 µg/mL; Vancomycin MIC [22]: 2 µg/mL; Clarithromycin MIC [23]: 0.5 µg/mL; Vancomycin MIC [23]: 8 µg/mL; Clarithromycin MIC [24]: 0.25 µg/mL; Vancomycin MIC [24]: 4 µg/mL

Question: What does the source list for `Nc1nc(-c2ccc(NC(=O)c3cc(Br)cc(Br)c3)cc2)c[nH]1` [Compound 4]?
Answer: Azithromycin MIC ([1]; compound Conc. Tested 2 (μM)): 4 µg/mL; Clarithromycin MIC ([1]; compound Conc. Tested 2 (μM)): 2 µg/mL; Erythromycin MIC ([1]; compound Conc. Tested 2 (μM)): 4 µg/mL; Vancomycin MIC ([1]; compound Conc. Tested 2 (μM)): 64 µg/mL; Azithromycin MIC ([1]; compound Conc. Tested 3 (μM)): 4 µg/mL; Clarithromycin MIC ([1]; compound Conc. Tested 3 (μM)): 1 µg/mL; Erythromycin MIC ([1]; compound Conc. Tested 3 (μM)): 2 µg/mL; Vancomycin MIC ([1]; compound Conc. Tested 3 (μM)): 32 µg/mL; Azithromycin MIC ([1]; compound Conc. Tested 4 (μM)): 4 µg/mL; Clarithromycin MIC ([1]; compound Conc. Tested 4 (μM)): 1 µg/mL; Erythromycin MIC ([1]; compound Conc. Tested 4 (μM)): 2 µg/mL; Vancomycin MIC ([1]; compound Conc. Tested 4 (μM)): 32 µg/mL; Azithromycin MIC ([1]; compound Conc. Tested 5 (μM)): 4 µg/mL; Clarithromycin MIC ([1]; compound Conc. Tested 5 (μM)): 0.5 µg/mL; Erythromycin MIC ([1]; compound Conc. Tested 5 (μM)): 2 µg/mL; Vancomycin MIC ([1]; compound Conc. Tested 5 (μM)): 32 µg/mL; Clarithromycin MIC [2]: 0.5 µg/mL; Vancomycin MIC [2]: 32 µg/mL; Clarithromycin MIC [3]: 0.5 µg/mL; Vancomycin MIC [3]: 128 µg/mL; Clarithromycin MIC [4]: ≤0.125 µg/mL; Vancomycin MIC [4]: 32 µg/mL; Clarithromycin MIC [5]: 0.5 µg/mL; Vancomycin MIC [5]: 64 µg/mL; Clarithromycin MIC [6]: 0.25 µg/mL; Vancomycin MIC [6]: 16 µg/mL; Clarithromycin MIC [7]: 1 µg/mL; Vancomycin MIC [7]: 16 µg/mL; Clarithromycin MIC [8]: 0.25 µg/mL; Vancomycin MIC [8]: 32 µg/mL; Clarithromycin MIC [9]: ≤0.25 µg/mL; Vancomycin MIC [9]: 64 µg/mL; Clarithromycin MIC [10]: ≤0.25 µg/mL; Vancomycin MIC [10]: 64 µg/mL; Clarithromycin MIC [11]: ≤0.25 µg/mL; Vancomycin MIC [11]: 4 µg/mL; Clarithromycin MIC [12]: ≤0.25 µg/mL; Vancomycin MIC [12]: 64 µg/mL; Clarithromycin MIC [13]: ≤0.25 µg/mL; Vancomycin MIC [13]: 8 µg/mL; Clarithromycin MIC [14]: ≤0.25 µg/mL; Vancomycin MIC [14]: 16 µg/mL; Clarithromycin MIC [15]: 0.5 µg/mL; Vancomycin MIC [15]: 4 µg/mL; Clarithromycin MIC [16]: 0.5 µg/mL; Vancomycin MIC (μg/mL) [16]: Toxic; Clarithromycin MIC [17]: 1 µg/mL; Vancomycin MIC [17]: 1 µg/mL; Clarithromycin MIC [18]: 0.5 µg/mL; Vancomycin MIC [18]: 8 µg/mL; Clarithromycin MIC [19]: 0.5 µg/mL; Vancomycin MIC [19]: 32 µg/mL; Clarithromycin MIC [20]: 0.5 µg/mL; Vancomycin MIC [20]: 1 µg/mL; Clarithromycin MIC [21]: 0.5 µg/mL; Vancomycin MIC [21]: 8 µg/mL; Clarithromycin MIC [22]: 0.25 µg/mL; Vancomycin MIC [22]: 8 µg/mL; Clarithromycin MIC [23]: 0.5 µg/mL; Vancomycin MIC [23]: 64 µg/mL; Clarithromycin MIC [24]: 0.25 µg/mL; Vancomycin MIC [24]: 8 µg/mL

Source: patent publication US20210283107A1, “Methods to Expand the Spectrum of Gram-Positive Antibiotics” (NORTH CAROLINA STATE UNIVERSITY, priority 2016, published 2021)
